# Experimental data taken from paper PMC8244912, “An oxytocin/vasopressin-related neuropeptide modulates social foraging behavior in the clonal raider ant” (PLoS Biology, 2021).
# Where a SMILES comes first, the peptide text is derived from it. Bridges are numbered along the chain shown (N, C = ends).
# Tested on: HEK293T cells transfected with an empty vector
# Experiment: Calcium flux, HEK293T cells transfected with empty vector
# Assay type: cell-based, human
# Conditions: inotocin 100 nM
# Description: Human embryonic kidney 293T (HEK293T) cells were cultured in DMEM supplemented with 10% FBS at 37°C in a tissue culture incubator with a humidified atmosphere containing 5% CO2. Cells were plated in 10-cm dishes, and, when they reached 60% to 70% confluency, they were transfected with a pcDNA3.3 vector containing approximately 1 ng of inotocin receptor cDNA or an empty vector as a control using Lipofectamine 2000. Cells were transfected directly into poly-D-lysine–coated 384-well plates and incubated for 48 hours at 37°C. Subsequently, cells were incubated with FLIPR Calcium 4 Assay kit dye for 1 hour in the incubator. The fluorescence (excitation, 488 nm; emission, 530 nm) of the wells was recorded using a Flex Station II 384 (Molecular Devices, San Jose, California, USA), and a dose curve of inotocin (0 to 3 μM) was applied to the wells, in sextuplicate (see below for inotocin peptide synthesis). We calculated the EC50 values using Prism (GraphPad Software version 8) nonlinear regression, 4-parameter logistic curve fit. Dose curves were repeated at least 3 times on independently prepared samples and different days. Results were consistent across replicates, and example dose curves are shown in Fig 1C and S4A Fig. Control experiments are shown in S2–S5 Figs.
smiles,measurement,value
CC[C@H](C)[C@@H]1NC(=O)[C@H](CC(C)C)NC(=O)[C@@H](N)CSSC[C@@H](C(=O)N2CCC[C@H]2C(=O)N[C@@H](CCCNC(=N)N)C(=O)NCC(N)=O)NC(=O)[C@H](CC(N)=O)NC(=O)[C@H]([C@@H](C)O)NC1=O [Inotocin] (H-CLITNCPRG-NH2; disulfide 1-6; N-terminus and C-terminus assumed),calcium response,No Ca^2+ influx is detected
